In brackets after ≈: the same amount, converted by molar mass.
Tests used:
Format in all cases: cell-based
[1] = test system: Mannheimia haemolytica MH 10720 (154, BRD field isolate); test: MIC, broth-microdilution (CLSI VET01-A4), strain MH 10720; settings: Mannheimia haemolytica strain MH 10720, broth-microdilution; unit assumed
Description: (§1) For example, representative compounds were tested against ***, Mannheimia haemolytica and Pasteurella multocida, using the conventional broth-dilution assay.
(§2) The Minimum inhibitory concentrations (MIC) of compounds according to the invention for a number of veterinary bacterial pathogens were determined by the broth-microdilution method according to CLSI document VET01-A4.
(§3) Microdilution trays containing a doubling dilution series of the test compound were used for the tests. The MIC results were interpreted according to the CLSI documents VET01-S3. The lowest concentration of compound at which no visible growth (i.e. no turbidity) detected by the unaided eye was recorded as the MIC.

[2] = test system: Mannheimia haemolytica MH 12587 (1071, BRD field isolate, macrolide-resistance: erm+, E+); test: MIC, broth-microdilution (CLSI VET01-A4), strain MH 12587; settings: Mannheimia haemolytica strain MH 12587, broth-microdilution; unit assumed
Description: as §1, §2, §3

[3] = test system: Mannheimia haemolytica MH 6357 (M7/2, reference strain, cattle infection strain); test: MIC, broth-microdilution (CLSI VET01-A4), strain MH 6357; settings: Mannheimia haemolytica strain MH 6357, broth-microdilution; unit assumed
Description: as §1, §2, §3

[4] = test system: Mannheimia haemolytica MH 6374 (ATCC 33396, reference strain); test: MIC, broth-microdilution (CLSI VET01-A4), strain MH 6374; settings: Mannheimia haemolytica strain MH 6374, broth-microdilution; unit assumed
Description: as §1, §2, §3

[5] = test system: Mannheimia haemolytica MH 13065 (XB0446-6003.9, BRD field isolate); test: MIC, broth-microdilution (CLSI VET01-A4), strain MH 13065; settings: Mannheimia haemolytica strain MH 13065, broth-microdilution; unit assumed
Description: as §1, §2, §3

[6] = test system: Pasteurella multocida PM 6267 (P 2225 (L386), reference strain, mouse infection strain); test: MIC, broth-microdilution (CLSI VET01-A4), strain PM 6267; settings: Pasteurella multocida strain PM 6267, broth-microdilution; unit assumed
Description: as §1, §2, §3

[7] = test system: Mannheimia haemolytica MH 13093 (XB0472-6014.1, BRD field isolate); test: MIC, broth-microdilution (CLSI VET01-A4), strain MH 13093; settings: Mannheimia haemolytica strain MH 13093, broth-microdilution; unit assumed
Description: as §1, §2, §3

[8] = test system: Pasteurella multocida PM 12080 (IV102277-0093, BRD field isolate); test: MIC, broth-microdilution (CLSI VET01-A4), strain PM 12080; settings: Pasteurella multocida strain PM 12080, broth-microdilution; unit assumed
Description: as §1, §2, §3

[9] = test system: Pasteurella multocida PM 10775 (080130003051, BRD field isolate); test: MIC, broth-microdilution (CLSI VET01-A4), strain PM 10775; settings: Pasteurella multocida strain PM 10775, broth-microdilution; unit assumed
Description: as §1, §2, §3

MIC PM 6267 [6] [µg/mL] | MIC PM 12080 [8] [µg/mL] | MIC PM 10775 [9] [µg/mL] | SMILES | MIC MH 10720 [1] [µg/mL] | MIC MH 12587 [2] [µg/mL] | MIC MH 6357 [3] [µg/mL] | MIC MH 6374 [4] [µg/mL] | MIC MH 13065 [5] [µg/mL] | MIC MH 13093 [7] [µg/mL]
0.4 (≈ 0.888 µM) | ≤ 0.1 |  | CC(C)(C(NC(=O)c1ccc(C#Cc2ccc(CNC3CC3)cc2)cc1)C(=O)NO)[N+](=O)[O-] (racemic) [Compound 218] | ≤ 0.1 | 0.8 (≈ 1.78 µM) | 0.4 (≈ 0.888 µM) | 0.4 (≈ 0.888 µM) | 0.4 (≈ 0.888 µM) | 0.4 (≈ 0.888 µM)
3.1 (≈ 7.64 µM) | 6.3 (≈ 15.5 µM) | 0.8 (≈ 1.97 µM) | C=CCNCc1cccc(C#Cc2ccc(C(=O)N[C@H](C(=O)NO)C(C)C)cc2)c1 [Compound 26] | 3.1 (≈ 7.64 µM) | 25 (≈ 61.7 µM) | 12.5 (≈ 30.8 µM) | 6.3 (≈ 15.5 µM) | 12.5 (≈ 30.8 µM) | 12.5 (≈ 30.8 µM)
3.1 (≈ 7.12 µM) | 6.3 (≈ 14.5 µM) | 0.8 (≈ 1.84 µM) | CC(C)[C@H](NC(=O)c1ccc(C#Cc2cccc(CNCC(C)(C)C)c2)cc1)C(=O)NO [Compound 27] | 3.1 (≈ 7.12 µM) | 25 (≈ 57.4 µM) | 12.5 (≈ 28.7 µM) | 12.5 (≈ 28.7 µM) | 25 (≈ 57.4 µM) | 25 (≈ 57.4 µM)
1.6 (≈ 3.67 µM) | 3.1 (≈ 7.12 µM) | 0.4 (≈ 0.918 µM) | CC(C)[C@H](NC(=O)c1ccc(C#Cc2cccc(CN3CCOCC3)c2)cc1)C(=O)NO [Compound 32] | 3.1 (≈ 7.12 µM) | 12.5 (≈ 28.7 µM) | 6.3 (≈ 14.5 µM) | 6.3 (≈ 14.5 µM) | 6.3 (≈ 14.5 µM) | 6.3 (≈ 14.5 µM)
3.1 (≈ 6.8 µM) | 6.3 (≈ 13.8 µM) | 0.8 (≈ 1.76 µM) | CC(C)[C@H](NC(=O)c1ccc(C#Cc2cccc(CNCc3ccccc3)c2)cc1)C(=O)NO [Compound 40] | 6.3 (≈ 13.8 µM) | 12.5 (≈ 27.4 µM) | 6.3 (≈ 13.8 µM) | 3.1 (≈ 6.8 µM) | 6.3 (≈ 13.8 µM) | 6.3 (≈ 13.8 µM)
3.1 (≈ 6.38 µM) | 3.1 (≈ 6.38 µM) | 0.4 (≈ 0.824 µM) | COc1ccc(CNCc2cccc(C#Cc3ccc(C(=O)N[C@H](C(=O)NO)C(C)C)cc3)c2)cc1 [Compound 43] | 1.6 (≈ 3.3 µM) | 12.5 (≈ 25.7 µM) | 6.3 (≈ 13 µM) | 6.3 (≈ 13 µM) | 6.3 (≈ 13 µM) | 12.5 (≈ 25.7 µM)
1.6 (≈ 3.5 µM) | 6.3 (≈ 13.8 µM) | 0.2 (≈ 0.438 µM) | CC(C)[C@H](NC(=O)c1ccc(C#Cc2cccc(CNCc3ccncc3)c2)cc1)C(=O)NO [Compound 46] | 1.6 (≈ 3.5 µM) | 12.5 (≈ 27.4 µM) | 6.3 (≈ 13.8 µM) | 6.3 (≈ 13.8 µM) | 6.3 (≈ 13.8 µM) | 6.3 (≈ 13.8 µM)
3.1 (≈ 7.39 µM) | 12.5 (≈ 29.8 µM) | 0.8 (≈ 1.91 µM) | C=CCNCc1cccc(C#Cc2ccc(C(=O)N[C@H](C(=O)NO)[C@@H](C)CC)cc2)c1 [Compound 49] | 6.3 (≈ 15 µM) | 25 (≈ 59.6 µM) | 12.5 (≈ 29.8 µM) | 12.5 (≈ 29.8 µM) | 12.5 (≈ 29.8 µM) | 12.5 (≈ 29.8 µM)
0.2 (≈ 0.508 µM) | 0.4 (≈ 1.02 µM) | ≤ 0.1 | O=C(N[C@@H](CO)C(=O)NO)c1ccc(C#Cc2ccc(CNC3CC3)cc2)cc1 [Compound 71] | 0.4 (≈ 1.02 µM) | 1.6 (≈ 4.07 µM) | 1.6 (≈ 4.07 µM) | 0.8 (≈ 2.03 µM) | 0.8 (≈ 2.03 µM) | 3.1 (≈ 7.88 µM)
1.6 (≈ 4.05 µM) | 12.5 (≈ 31.6 µM) | 0.8 (≈ 2.02 µM) | CC(C)NCc1ccc(C#Cc2ccc(C(=O)N[C@@H](CO)C(=O)NO)cc2)cc1 [Compound 72] | 6.3 (≈ 15.9 µM) | 25 (≈ 63.2 µM) | 12.5 (≈ 31.6 µM) | 12.5 (≈ 31.6 µM) | 12.5 (≈ 31.6 µM) | 12.5 (≈ 31.6 µM)
0.4 (≈ 1.02 µM) | 1.6 (≈ 4.07 µM) | ≤ 0.1 | C=CCNCc1ccc(C#Cc2ccc(C(=O)N[C@@H](CO)C(=O)NO)cc2)cc1 [Compound 73] | 3.1 (≈ 7.88 µM) | 6.3 (≈ 16 µM) | 3.1 (≈ 7.88 µM) | 3.1 (≈ 7.88 µM) | 3.1 (≈ 7.88 µM) | 3.1 (≈ 7.88 µM)
0.8 (≈ 1.94 µM) | 3.1 (≈ 7.53 µM) | ≤ 0.1 | COCCNCc1ccc(C#Cc2ccc(C(=O)N[C@@H](CO)C(=O)NO)cc2)cc1 [Compound 74] | 3.1 (≈ 7.53 µM) | 12.5 (≈ 30.4 µM) | 3.1 (≈ 7.53 µM) | 3.1 (≈ 7.53 µM) | 6.3 (≈ 15.3 µM) | 12.5 (≈ 30.4 µM)
0.4 (≈ 0.977 µM) | 3.1 (≈ 7.57 µM) | 0.2 (≈ 0.488 µM) | CCN(CC)Cc1ccc(C#Cc2ccc(C(=O)N[C@@H](CO)C(=O)NO)cc2)cc1 [Compound 76] | 6.3 (≈ 15.4 µM) | 25 (≈ 61.1 µM) | 12.5 (≈ 30.5 µM) | 25 (≈ 61.1 µM) | 12.5 (≈ 30.5 µM) | 25 (≈ 61.1 µM)
≤ 0.1 | 0.8 (≈ 1.89 µM) | ≤ 0.1 | O=C(N[C@@H](CO)C(=O)NO)c1ccc(C#Cc2ccc(CN3CCOCC3)cc2)cc1 [Compound 77] | 0.8 (≈ 1.89 µM) | 3.1 (≈ 7.32 µM) | 6.3 (≈ 14.9 µM) | 1.6 (≈ 3.78 µM) | 3.1 (≈ 7.32 µM) | 3.1 (≈ 7.32 µM)
≤ 0.1 | 0.8 (≈ 1.7 µM) | ≤ 0.1 | O=C(N[C@@H](CO)C(=O)NO)c1ccc(C#Cc2ccc(CN3CCS(=O)(=O)CC3)cc2)cc1 [Compound 78] | 3.1 (≈ 6.57 µM) | 12.5 (≈ 26.5 µM) | 6.3 (≈ 13.4 µM) | 6.3 (≈ 13.4 µM) | 6.3 (≈ 13.4 µM) | 6.3 (≈ 13.4 µM)
0.4 (≈ 0.838 µM) | 1.6 (≈ 3.35 µM) | ≤ 0.1 | CC(C)(C)C1CCN(Cc2ccc(C#Cc3ccc(C(=O)N[C@@H](CO)C(=O)NO)cc3)cc2)CC1 [Compound 79] | 3.1 (≈ 6.49 µM) | 25 (≈ 52.3 µM) | 12.5 (≈ 26.2 µM) | 25 (≈ 52.3 µM) | 12.5 (≈ 26.2 µM) | 25 (≈ 52.3 µM)
≤ 0.1 | 0.8 (≈ 1.61 µM) | ≤ 0.1 | O=C(N[C@@H](CO)C(=O)NO)c1ccc(C#Cc2ccc(CN3CCC(c4ccccc4)CC3)cc2)cc1 [Compound 80] | 0.8 (≈ 1.61 µM) | 3.1 (≈ 6.23 µM) | 1.6 (≈ 3.22 µM) | 1.6 (≈ 3.22 µM) | 1.6 (≈ 3.22 µM) | 6.3 (≈ 12.7 µM)
≤ 0.1 | 0.8 (≈ 1.6 µM) | ≤ 0.1 | O=C(N[C@@H](CO)C(=O)NO)c1ccc(C#Cc2ccc(CN3CCN(c4ccccc4)CC3)cc2)cc1 [Compound 81] | 0.8 (≈ 1.6 µM) | 25 (≈ 50.1 µM) | 3.1 (≈ 6.22 µM) | 3.1 (≈ 6.22 µM) | 3.1 (≈ 6.22 µM) | 6.3 (≈ 12.6 µM)
≤ 0.1 | 0.8 (≈ 1.6 µM) | ≤ 0.1 | O=C(N[C@@H](CO)C(=O)NO)c1ccc(C#Cc2ccc(CN3CCN(c4ccccn4)CC3)cc2)cc1 [Compound 82] | 0.4 (≈ 0.801 µM) | 3.1 (≈ 6.21 µM) | 1.6 (≈ 3.2 µM) | 0.8 (≈ 1.6 µM) | 6.3 (≈ 12.6 µM) | 3.1 (≈ 6.21 µM)
≤ 0.1 | 0.8 (≈ 1.7 µM) | ≤ 0.1 | O=C(N[C@@H](CO)C(=O)NO)c1ccc(C#Cc2ccc(CN3CCc4ccccc4C3)cc2)cc1 [Compound 83] | 0.4 (≈ 0.852 µM) | 1.6 (≈ 3.41 µM) | 25 (≈ 53.2 µM) | 0.8 (≈ 1.7 µM) | 0.8 (≈ 1.7 µM) | 1.6 (≈ 3.41 µM)
≤ 0.1 | 0.4 (≈ 0.755 µM) | ≤ 0.1 | COc1cc2c(cc1OC)CN(Cc1ccc(C#Cc3ccc(C(=O)N[C@@H](CO)C(=O)NO)cc3)cc1)CC2 [Compound 84] | 0.8 (≈ 1.51 µM) | 3.1 (≈ 5.85 µM) | 3.1 (≈ 5.85 µM) | 3.1 (≈ 5.85 µM) | 3.1 (≈ 5.85 µM) | 3.1 (≈ 5.85 µM)
≤ 0.1 | 0.8 (≈ 1.8 µM) | ≤ 0.1 | O=C(N[C@@H](CO)C(=O)NO)c1ccc(C#Cc2ccc(CNCc3ccccc3)cc2)cc1 [Compound 85] | 1.6 (≈ 3.61 µM) | 3.1 (≈ 6.99 µM) | 3.1 (≈ 6.99 µM) | 0.8 (≈ 1.8 µM) | 1.6 (≈ 3.61 µM) | 3.1 (≈ 6.99 µM)
≤ 0.1 | 0.8 (≈ 1.75 µM) | ≤ 0.1 | CN(Cc1ccccc1)Cc1ccc(C#Cc2ccc(C(=O)N[C@@H](CO)C(=O)NO)cc2)cc1 [Compound 86] | 0.4 (≈ 0.874 µM) | 3.1 (≈ 6.78 µM) | 1.6 (≈ 3.5 µM) | 0.8 (≈ 1.75 µM) | 1.6 (≈ 3.5 µM) | 3.1 (≈ 6.78 µM)
0.2 (≈ 0.414 µM) | 0.4 (≈ 0.827 µM) | ≤ 0.1 | CC[C@H](C)[C@H](NC(=O)c1ccc(C#Cc2ccc(CNCc3ccc(C)cc3)cc2)cc1)C(=O)NO [Compound 189] |  | 3.1 (≈ 6.41 µM) | 1.6 (≈ 3.31 µM) | 3.1 (≈ 6.41 µM) | 1.6 (≈ 3.31 µM) | 3.1 (≈ 6.41 µM)

Reference: patent US11034650B2, “Compounds useful for treating a Mannheimia haemolytica or Histophilus somni infection” (Intervet Inc., priority 2016, dated 2021)
